Results on one compound are retold here after ChEMBL document CHEMBL4819123, “Pulchinenosides: Correlation of surface activity-cytotoxicity and hepatocyte apoptosis mechanism study” (Bioorg Med Chem Lett, 2021).

Data set [1] relates to L02. Description: Induction of apoptosis in human L02 cells assessed as decrease in caspase 9 level at 8 to 12 ug/ml measured after 24 hrs by Western blot analysis. In kind it is cell-based. To be noted: l02, 24 h, dose 8-12 µg/ml.
Data set [2] deals with L02. The data set is described as follows: Cytotoxicity against human L02 cells by MTT assay. Type of data set: cell-based. A general note: Tetrazolium assays rely on reduction of a dye to a coloured formazan, in cell work by metabolically active cells.
In data set [3] the test system is L02. Description: Cytotoxicity against human L02 cells assessed as increase in LDH leakage by LDH assay. In kind it is cell-based. A general note: LDH leaks from cells whose membrane has failed.
Data set [4] relates to L02. Description: Induction of apoptosis in human L02 cells assessed as early apoptotic cells at 10 uM by annexin-V-FITC/PI staining based flow cytometry analysis (reference value: 3.81 %). To be noted: l02, 10 µM. In kind it is cell-based. A general note: Flow cytometry measures light scatter and fluorescence of single cells or particles in a stream.
Data set [5] has as its system L02. Description: Induction of cell cycle arrest in human L02 cells assessed as G0/G1 phase accumulation at 10 uM by PI staining based flow cytometry analysis (reference value: 53.77 %). To be noted: l02, 10 µM.
Data set [6] is described as follows: Hemolytic activity in rabbit erythrocytes. In kind it is ADME, cell-based, Oryctolagus cuniculus, Erythrocyte. Particulars: read-out: HD50 (the source's name); call rule not given here.
Data set [7] concerns L02. The data set is described as follows: Induction of cell cycle arrest in human L02 cells assessed as S phase accumulation at 6 uM by PI staining based flow cytometry analysis (reference value: 38.23 %). Particulars: l02, 6 µM.
Data set [8] is described as follows: Oil-water partition coefficient, logP of compound. Type of data set: physicochemical.
In data set [9] the test system is L02. The data set is described as follows: Induction of apoptosis in human L02 cells assessed as late apoptotic cells at 8 uM by annexin-V-FITC/PI staining based flow cytometry analysis (reference value: 0.92 %). Type of data set: cell-based. To be noted: l02, 8 µM.
The subject of data set [10] is L02. The data set is described as follows: Induction of apoptosis in human L02 cells assessed as decrease in ratio of Bcl-2/Bax at 8 to 12 ug/ml measured after 24 hrs by Western blot analysis. Type of data set: cell-based. Particulars: l02, 24 h, dose 8-12 µg/ml.
The test system of data set [11] is L02. Description: Induction of cell cycle arrest in human L02 cells assessed as S phase accumulation at 8 uM by PI staining based flow cytometry analysis (reference value: 38.23 %). Particulars: l02, 8 µM.
The subject of data set [12] is L02. Description: Induction of apoptosis in human L02 cells assessed as late apoptotic cells at 10 uM by annexin-V-FITC/PI staining based flow cytometry analysis (reference value: 0.92 %). Type of data set: cell-based. To be noted: l02, 10 µM.
Data set [13] has as its system L02. Description: Induction of apoptosis in human L02 cells assessed as early apoptotic cells at 8 uM by annexin-V-FITC/PI staining based flow cytometry analysis (reference value: 3.81 %). In kind it is cell-based. Particulars: l02, 8 µM.
In data set [14] the test system is L02. The data set is described as follows: Induction of cell cycle arrest in human L02 cells assessed as S phase accumulation at 10 uM by PI staining based flow cytometry analysis (reference value: 38.23 %). Particulars: l02, 10 µM.
In data set [15] the test system is L02. Description: Induction of cell cycle arrest in human L02 cells assessed as G2/M phase accumulation at 8 uM by PI staining based flow cytometry analysis (reference value: 8 %). To be noted: l02, 8 µM.
For data set [16], the system named is L02. Description: Induction of cell cycle arrest in human L02 cells assessed as G0/G1 phase accumulation at 6 uM by PI staining based flow cytometry analysis (reference value: 53.77 %). Particulars: l02, 6 µM.
In data set [17] the test system is L02. Description: Induction of cell cycle arrest in human L02 cells assessed as G2/M phase accumulation at 6 uM by PI staining based flow cytometry analysis (reference value: 8 %). To be noted: l02, 6 µM.
Data set [18] deals with L02. Description: Induction of apoptosis in human L02 cells assessed as increase in cleaved caspase 8 level at 8 to 12 ug/ml measured after 24 hrs by Western blot analysis. Type of data set: cell-based. To be noted: l02, 24 h, dose 8-12 µg/ml.
Data set [19] deals with L02. Description: Induction of apoptosis in human L02 cells assessed as late apoptotic cells at 6 uM by annexin-V-FITC/PI staining based flow cytometry analysis (reference value: 0.92 %). In kind it is cell-based. Particulars: l02, 6 µM.
The subject of data set [20] is L02. Description: Induction of apoptosis in human L02 cells assessed as upregulation of FAS expression at 8 to 12 ug/ml measured after 24 hrs by Western blot analysis. In kind it is cell-based. To be noted: l02, 24 h, dose 8-12 µg/ml.
The subject of data set [21] is L02. The data set is described as follows: Induction of apoptosis in human L02 cells assessed as decrease in caspase 8 level at 8 to 12 ug/ml measured after 24 hrs by Western blot analysis. Particulars: l02, 24 h, dose 8-12 µg/ml. In kind it is cell-based.
Data set [22] deals with L02. The data set is described as follows: Induction of apoptosis in human L02 cells assessed as early apoptotic cells at 6 uM by annexin-V-FITC/PI staining based flow cytometry analysis (reference value: 3.81 %). Particulars: l02, 6 µM. Type of data set: cell-based.
Data set [23] has as its system L02. The data set is described as follows: Induction of cell cycle arrest in human L02 cells assessed as G0/G1 phase accumulation at 8 uM by PI staining based flow cytometry analysis (reference value: 53.77 %). Particulars: l02, 8 µM.
The test system of data set [24] is L02. The data set is described as follows: Induction of cell cycle arrest in human L02 cells assessed as G2/M phase accumulation at 10 uM by PI staining based flow cytometry analysis (reference value: 8 %). Particulars: l02, 10 µM.

Molecules are shown by their SMILES.

As usually defined, the IC50 is the concentration that gives 50% inhibition. Lower therefore signals greater potency. As a reminder, the logP is the decadic logarithm of the partition coefficient of the neutral form, usually between octanol and water. Low values mean a more hydrophilic compound, high ones a more lipophilic compound.

Take `C[C@@H]1O[C@@H](O[C@H]2[C@H](O[C@H]3CC[C@]4(C)[C@H]5CC=C6[C@@H]7CC(C)(C)CC[C@]7(C(=O)O)CC[C@@]6(C)[C@]5(C)CC[C@H]4C3(C)C)OC[C@H](O[C@@H]3O[C@H](CO)[C@@H](O)[C@H](O)[C@H]3O)[C@@H]2O)[C@H](O)[C@H](O)[C@H]1O` [HEDERACOLCHISIDE A1]: the Activity entry with L02 [1] was “Toxic”; in the data set on L02 [3], “Toxic”; in the data set on L02 [4], 3.51%; in the data set with L02 [5], 39.69%; in the data set with L02 [7] it was 29.95%; with L02 [9], 38.6%. In addition, the Activity result is “Toxic” in the data set with L02 [10]; 32.66% in the data set with L02 [11]; 94.1% in the data set with L02 [12]; 17.6% with L02 [13]; 58.44% with L02 [14]; 2% with L02 [15]. Moreover, the Activity in the data set with L02 [16] is on record as 62.05%; with L02 [17], 8%; in the data set on L02 [18], “Toxic”; with L02 [19], 3.11%; with L02 [20] it was “Toxic”; in the data set on L02 [21] it was “Toxic”. In addition, the Activity in the data set with L02 [22] is recorded as 4.59%; with L02 [23], 67.33%; in the data set on L02 [24], 1.88%. In the data set with L02 [2], this compound registered an IC50 of 7.13 µM. Besides, the HC50 in data set [6] amounted to 3.24 µM. Moreover, the logP in data set [8] amounted to 0.0406.
